EC50 and CC50 data for 25 compounds are collected here from US9855230B2 (ViiV Healthcare UK (No. 5) Limited, priority 2014, dated 2018).

Counter-ions that a name gives are not always drawn. Like-named read-outs stand apart in the source and are kept apart here.

Data set [1] has as its system recombinant NL4-3 virus (nef section replaced with Renilla luciferase gene) in MT-2 cells. The data set can be described thus: whole plant or invertebrate. The class given is cell-based, HIV. The essentials:
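Nef-deleted NL4-3 reporter virus carrying Renilla luciferase was used to infect MT-2 cells in the presence of serial compound dilutions. After 4-5 days of infection, antiviral activity was quantified from luciferase activity using a live-cell substrate.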

Data set [2] can be described thus: Compound cytotoxicity (CC50), XTT-based colorimetric assay. The class given is cell-based. The following applies: human; uninfected MT2 cells, day 4, XTT assay. In a few lines: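 Run under the antiviral-assay protocol but without virus. Viability was read on day 4 and CC50 values were derived from the readout.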
[3] abbreviates: NL43, luciferase activity in MT-2 cells infected 4-5 days with recombinant NL4-3 virus, read-out: Activity.
The mark [4] stands for this setting: NL43, luciferase activity in MT-2 cells infected 4-5 days with recombinant NL4-3 virus, read-out: EC50.

With `O=C(N[C@@H](Cc1ccccc1)c1nccn1-c1ccc2c(c1)CCO2)NS(=O)(=O)c1ccccc1F` [Example 75, (S)-N-((1-(1-(2,3-dihydrobenzofuran-5-yl)-1H-imidazol-2-yl)-2-phenylethyl)carbamoyl)-2-fluorobenzenesulfonamide], the EC50 is < 100 nM in data set [1] (setting [3]) and 20 nM in data set [1] (setting [4]). Also, the CC50 at 4 day in data set [2] was > 100 µM.
`COC(=O)Nc1cccc(-n2ccnc2[C@H](Cc2ccccc2)NC(=O)NS(=O)(=O)c2ccccc2C)c1` [Example 76, (S)-methyl (3-(2-(2-phenyl-1-(3-(o-tolylsulfonyl)ureido)ethyl)-1H-imidazol-1-yl)phenyl)carbamate]: in data set [1] (setting [3]), the EC50 was in the range of 100 to 1000 nM. For the same compound, the CC50 at 4 day in data set [2] was > 100 µM.
In the case of `Cc1ccccc1S(=O)(=O)NC(=O)N[C@@H](Cc1ccccc1)c1nccn1-c1ccc2occc2c1` [Example 77, (S)-N-((1-(1-(benzofuran-5-yl)-1H-imidazol-2-yl)-2-phenylethyl)carbamoyl)-2-methylbenzenesulfonamide], the EC50 in data set [1] (setting [3]) was < 100 nM. Moreover, the cytotoxic concentration (CC50) at 4 day in data set [2] is > 100 µM.
For the compound `O=C(N[C@@H](Cc1ccccc1)c1nccn1-c1ccc2occc2c1)NS(=O)(=O)c1ccccc1F` [Example 78, (S)-N-((1-(1-(benzofuran-5-yl)-1H-imidazol-2-yl)-2-phenylethyl)carbamoyl)-2-fluorobenzenesulfonamide], the EC50 in data set [1] (setting [3]) was < 100 nM; in data set [1] (setting [4]), 20 nM. The CC50 at 4 day in data set [2] was > 100 µM.
Regarding `CCCC(=O)Nc1cccc(-n2ccnc2[C@H](Cc2ccccc2)NC(=O)NS(=O)(=O)c2ccccc2C)c1` [Example 79, (S)-N-(3-(2-(2-phenyl-1-(3-(o-tolylsulfonyl)ureido)ethyl)-1H-imidazol-1-yl)phenyl)butyramide], the EC50 in data set [1] (setting [3]) was > 1000 nM. The CC50 at 4 day in data set [2] is > 100 µM.
On the same counts, the results for `Cc1ccccc1S(=O)(=O)NC(=O)N[C@@H](Cc1ccccc1)c1nccn1-c1cnn(-c2ccccc2)c1` [Example 80, (S)-2-methyl-N-((2-phenyl-1-(1-(1-phenyl-1H-pyrazol-4-yl)-1H-imidazol-2-yl)ethyl)carbamoyl)benzenesulfonamide] are < 100 nM and > 100 µM.
As for `Cc1ccccc1S(=O)(=O)NC(=O)N[C@@H](Cc1ccccc1)c1nccn1-c1cnn(Cc2ccccc2)c1` [Example 81, (S)-N-((1-(1-(1-benzyl-1H-pyrazol-4-yl)-1H-imidazol-2-yl)-2-phenylethyl)carbamoyl)-2-methylbenzenesulfonamide], the results for the EC50 in data set [1] (setting [3]) and in data set [1] (setting [4]) were 100 to 1000 nM and 550 nM, respectively. Also, the 50% cytotoxic concentration (CC50) at 4 day in data set [2] is > 100 µM.
On to `Cc1ccccc1S(=O)(=O)NC(=O)N[C@@H](Cc1cc(F)cc(F)c1)c1nccn1-c1ccc2c(c1)CCO2` [Example 82, (S)-N-((2-(3,5-difluorophenyl)-1-(1-(2,3-dihydrobenzofuran-5-yl)-1H-imidazol-2-yl)ethyl)carbamoyl)-2-methylbenzenesulfonamide], for which the EC50 in data set [1] (setting [3]) was in the range of 100 to 1000 nM. In data set [2], the CC50 at 4 day is > 100 µM.
On the same counts, the results for `COc1ccc(Cn2c(Br)cnc2[C@H](Cc2ccccc2)NC(=O)NS(=O)(=O)c2ccc(C)cc2)cc1` [Example 83, (S)-N-((1-(5-bromo-1-(4-methoxybenzyl)-1H-imidazol-2-yl)-2-phenylethyl)carbamoyl)-4-methylbenzenesulfonamide] are > 1000 nM and > 33 µM.
For `CCOc1ccc(-c2cccnc2[C@H](Cc2ccccc2)NC(=O)NS(=O)(=O)c2ccccc2C)cc1` [Example 88, (S)-N-((1-(3-(4-ethoxyphenyl)pyridin-2-yl)-2-phenylethyl)carbamoyl)-2-methylbenzenesulfonamide], in that order: 100 to 1000 nM and > 100 µM.
Take `COC(=O)Nc1ccc(-c2cccnc2[C@H](Cc2cc(F)cc(F)c2)NC(=O)NS(=O)(=O)c2ccccc2C)cc1` [Example 89, (S)-methyl (4-(2-(2-(3,5-difluorophenyl)-1-(3-(o-tolylsulfonyl)ureido)ethyl)pyridin-3-yl)phenyl)carbamate]: the EC50 in data set [1] (NL43, read-out: Activity) was in the range of 100 to 1000 nM. For the same compound, the CC50 at 4 day in data set [2] is > 100 µM.
Take `Cc1ccccc1S(=O)(=O)NC(=O)N[C@@H](Cc1cc(F)cc(F)c1)c1ncccc1-c1ccc2ccncc2c1` [Example 90, (S)-N-((2-(3,5-difluorophenyl)-1-(3-(isoquinolin-7-yl)pyridin-2-yl)ethyl)carbamoyl)-2-methylbenzenesulfonamide]: the EC50 in data set [1] (setting [3]) was 100 to 1000 nM; in data set [1] (setting [4]), 230 nM. Moreover, in data set [2], the CC50 at 4 day is > 100 µM.
Regarding `COC(=O)Nc1ccc(-c2cccnc2[C@H](Cc2cc(F)cc(F)c2)NC(=O)NS(=O)(=O)c2ccccc2Cl)cc1` [Example 91, (S)-methyl (4-(2-(1-(3-((2-chlorophenyl)sulfonyl)ureido)-2-(3,5-difluorophenyl)ethyl)pyridin-3-yl)phenyl)carbamate, TFA], the EC50 in data set [1] (setting [3]) lay within 100 to 1000 nM. Besides, the CC50 at 4 day in data set [2] is > 100 µM.
For `O=C(N[C@@H](Cc1cc(F)cc(F)c1)c1ncccc1-c1ccc2ccncc2c1)NS(=O)(=O)c1ccccc1Cl` [Example 92, (S)-2-chloro-N-((2-(3,5-difluorophenyl)-1-(3-(isoquinolin-7-yl)pyridin-2-yl)ethyl)carbamoyl)benzenesulfonamide, 2 TFA], in that order: 100 to 1000 nM and > 100 µM.
Regarding `CCOc1ccc(-c2cccnc2C(Cc2ccccc2)NC(=O)NS(=O)(=O)c2ccccc2C)cc1` (stereo not shown) [Example 93, N-((1-(3-(4-ethoxyphenyl)pyridin-2-yl)-2-phenylethyl)carbamoyl)-2-methylbenzenesulfonamide], the EC50 is 100 to 1000 nM in data set [1] (setting [3]) and 420 nM in data set [1] (setting [4]). In addition, in data set [2], the 50% cytotoxic concentration (CC50) at 4 day is > 100 µM.
Regarding `CCOc1ccc(-c2cccnc2[C@H](Cc2cc(F)cc(F)c2)NC(=O)NS(=O)(=O)c2ccccc2C)cc1` [Example 94, (S)-N-((2-(3,5-difluorophenyl)-1-(3-(4-ethoxyphenyl)pyridin-2-yl)ethyl)carbamoyl)-2-methylbenzenesulfonamide, TFA], the EC50 in data set [1] (setting [3]) is 100 to 1000 nM. Besides, the 50% cytotoxic concentration (CC50) at 4 day in data set [2] is > 100 µM.
For `NC(=O)c1cc(-c2cccnc2[C@H](Cc2cc(F)cc(F)c2)NC(=O)NS(=O)(=O)c2ccccc2Cl)ccc1F` [Example 95, (S)-5-(2-(1-(3-((2-chlorophenyl)sulfonyl)ureido)-2-(3,5-difluorophenyl)ethyl)pyridin-3-yl)-2-fluorobenzamide, TFA], in that order: 100 to 1000 nM and > 100 µM.
For `COc1ccc(-c2cccnc2[C@H](Cc2cc(F)cc(F)c2)NC(=O)NS(=O)(=O)c2ccccc2C)cc1` [Example 96, (S)-N-((2-(3,5-difluorophenyl)-1-(3-(4-methoxyphenyl)pyridin-2-yl)ethyl)carbamoyl)-2-methylbenzenesulfonamide, TFA], the EC50 in data set [1] (setting [3]) is 100 to 1000 nM; in data set [1] (setting [4]), 590 nM. Besides, in data set [2], the CC50 at 4 day is > 33 µM.
Take `Cc1ccccc1S(=O)(=O)NC(=O)N[C@@H](Cc1cc(F)cc(F)c1)c1ncccc1-c1ccc(F)c(C(N)=O)c1` [Example 97, (S)-5-(2-(2-(3,5-difluorophenyl)-1-(3-(o-tolylsulfonyl)ureido)ethyl)pyridin-3-yl)-2-fluorobenzamide, TFA]: in data set [1] (setting [3]), the EC50 fell in the range of 100 to 1000 nM. In data set [2], the cytotoxic concentration (CC50) at 4 day is > 100 µM.
`Cc1ccccc1S(=O)(=O)NC(=O)NC(Cc1ccccc1)c1ncccc1-c1ccc(F)c(C(N)=O)c1` (stereo not shown) [Example 98, 2-fluoro-5-(2-(2-phenyl-1-(3-(o-tolylsulfonyl)ureido)ethyl)pyridin-3-yl)benzamide, TFA]: in data set [1] (setting [3]), the EC50 lay within 100 to 1000 nM. Also, the CC50 at 4 day in data set [2] was > 33 µM.
With `O=C(N[C@H](Cc1cc(F)cc(F)c1)c1ncccc1-c1ccc2ccncc2c1)NS(=O)(=O)c1ccccc1Cl` [Example 99, (R)-2-chloro-N-((2-(3,5-difluorophenyl)-1-(3-(isoquinolin-7-yl)pyridin-2-yl)ethyl)carbamoyl)benzenesulfonamide, 2 TFA], the EC50 in data set [1] (NL43) was 1060 nM; in data set [1] (NL43, read-out: Activity), > 1000 nM. In addition, the CC50 at 4 day in data set [2] was > 33 µM.
With `Cc1ccccc1S(=O)(=O)NC(=O)N[C@@H](Cc1cc(F)cc(F)c1)c1ncccc1-c1cncc(F)c1` [Example 100, (S)-N-((2-(3,5-difluorophenyl)-1-(5′-fluoro-[3,3′-bipyridin]-2-yl)ethyl)carbamoyl)-2-methylbenzenesulfonamide, 2 TFA], in data set [1] (setting [3]), the EC50 was > 1000 nM. Further, the cytotoxic concentration (CC50) at 4 day in data set [2] is > 100 µM.
For `CC(C)(C)OC(=O)n1cc(-c2cccnc2[C@@H](Cc2cc(F)cc(F)c2)NC(=O)NS(=O)(=O)c2ccccc2Cl)c2ccccc21` [Example 101, (R)-tert-butyl 3-(2-(1-(3-((2-chlorophenyl)sulfonyl)ureido)-2-(3,5-difluorophenyl)ethyl)pyridin-3-yl)-1H-indole-1-carboxylate, TFA], in that order: > 1000 nM and 36 µM.
In the case of `O=C(N[C@H](Cc1cc(F)cc(F)c1)c1ncccc1-c1c[nH]c2ccccc12)NS(=O)(=O)c1ccccc1Cl` [Example 102, (R)-N-((1-(3-(1H-indol-3-yl)pyridin-2-yl)-2-(3,5-difluorophenyl)ethyl)carbamoyl)-2-chlorobenzenesulfonamide, 2 TFA], the results for the EC50 in data set [1] (setting [3]) and in data set [1] (setting [4]) were > 1000 nM and 11500 nM, respectively. Moreover, the 50% cytotoxic concentration (CC50) at 4 day in data set [2] was > 33 µM.
Consider `Cc1ccccc1S(=O)(=O)NC(=O)N[C@H](Cc1cc(F)cc(F)c1)c1ncccc1-c1cncc(F)c1` [Example 103, (R)-N-((2-(3,5-difluorophenyl)-1-(5′-fluoro-[3,3′-bipyridin]-2-yl)ethyl)carbamoyl)-2-methylbenzenesulfonamide, 2 TFA], for which the EC50 in data set [1] (setting [3]) was > 1000 nM. For the same compound, the CC50 at 4 day in data set [2] was > 100 µM.
